# Data as given in patent US20250249014A1, “A COMBINATION FOR TREATING A RETINAL DISEASE” (HADASIT MEDICAL RESEARCH SERVICES AND DEVELOPMENT LTD., priority 2022, published 2025).
# Structures can show the parent of a compound that is named as a salt. Where two headings read alike, the source gives them in different places.
# What was measured:
# HUVECs [1] = experiment: Cell proliferation assay (WST-1) on HUVECs, with synergy analysis; type: cell-based, Human; settings: for IC50 (inhibitory concentration of 50% cell growth compared to control) / IC50 / % of Inhibition ± SD: HUVECs proliferation; for dose-proliferation inhibition relationship: increasing SMI concentration; for IC50: Homo sapiens, HUVEC; for % of Inhibition ± SD: maximal attainable concentration of each SMI (28.421 μM, 17.85 μM, 20.99 μM); for effect of addition to the Azeliragon and EHop-016 combination on proliferation inhibition: CCR2-RA-[R] 22.74 μM
# Description: Cell proliferation assay—The principle of cell proliferation assay is illustrated in FIG. 1. Briefly, HUVECS were seeded and maintained in EGM™-2 (Lonza Bioscience Solutions) medium for 24 hours. The cells were then treated with various dosages of SMI for designated time periods. Each experiment included a DMSO-treated control group. Tetrazolium salt was added according to the manufacturer's instructions and formation of formazan dye was quantified by measuring the absorbance at 440 nm using spectrophotometer. The formation of formazan dye is directly proportional to number of living cells.
# Analysis of combined synergistic effect-Analysis of combined SMIs effect was determined from the results of the cell proliferation assay after 72 hours. SMIs synergy was determined by three synergy models. • 1. The Zero Interaction Potency (ZIP) model is a reference model for evaluating the effect of combination of two drugs by comparing the change in the potency of the dose-response curves between individual drugs and their combinations. A zip score higher than 10 is indicative of a synergistic combination, a zip score of between −10 and 10 is indicative of an additive combination and a zip score lower than −10 is indicative of an antagonistic combination. • 2. […] Values below 1 will represent synergism and above 1 antagonism.
# HUVECs [2] = experiment: Endothelial cell migration assay (scratch test); type: cell-based, Human; settings: EHop-016 0.8 μM at 11 hours, CCR2-RA-[R] 5 μM at 13 hours
# Description: Endothelial cell migration assay (scratch test)—5×10^4 cells/200 μl of HUVECs were cultured in 96 wells Incucyte® ImageLock 96-well microplates plates to near confluence in EGM™-2 medium for 24 hours. Afterwards, a homogeneous, 700-800-micron wide scratch wounds were created using Incucyte® WoundMaker. Different SMIs concentrations vs. DMSO (solvent) were added. Serial images for 26 hours of the migrating cells were obtained hourly using a live cell imaging system (Incucyte®).
# [3] = tested on: Hypoxia-inducible factor 1-alpha (HIF-1α); experiment: Western blot of HIF-1α expression in HUVEC cells; type: cell-based, Human; settings: 72 hours, combination Azeliragon 0.6 μM and EHop-016 1.3 μM
# Description: Western blot—5×10^4 HUVEC cells were seeded in 10 cm dish in EGM™-2 medium for 24 hours. The cells were then treated with various dosages and combinations of SMI for 72 hours in addition to a control group treated with DMSO. Cells were lysed in WCE (whole-cell extraction) buffer [25 mM Hepes, pH 7.7, 0.3 M NaCl, 1.5 mM MgCl2, 0.2 mM EDTA, 0.1% Triton X-100, 0.5 mM DTT (dithiothreitol), 20 mM 2-glycerophosphate, 0.1 mM Na3VO4, 100 μg/ml PMSF and protease inhibitor cocktail (Sigma-Aldrich, 1:100 dilution)]. The proteins were then separated by SDS/PAGE (10% gel), followed by transfer on to a nitrocellulose membrane. Blots were blocked in 5% (w/v) non-fat dried skimmed milk powder in PBS and washed in PBS.
# choroid explants = experiment: Choroid sprouting assay, ex-vivo; type: cell-based, C57BL/6J mice; settings: 7 days; 0.55 μM Azeliragon, EHop-016 alone, 0.70 μM in combination; compared to untreated and DMSO
# Description: Plates were then incubated for 10 minutes in 37° C., in a 5% CO2 cell culture incubator without medium to solidify the Matrigel™. […] Fresh medium and SMIs were replaced every two days and grown for 7 days (x3 time medium replaced).
# [4] = tested on: choroidal neovascularization (CNV); experiment: Laser-Induced CNV model; type: in vivo, C57BL/6J mice; settings: dosage calibration assays; EHop-016 30 μM, Aflibercept 41.27 μM
# Description: Laser-Induced CNV Model—CNV was induced in C57BL/6J mice using argon green ophthalmic laser ([…], 50 μm, 0.1 sec) applied under fundoscopy to rupture Bruch's membrane. […] The injections were performed at the superotemporal sclera, where a perforating sclerotomy was made with 27-gauge (G) needle at approximately 1-2 mm from the limbus. Then, 1-2 μl of SMIs (solved in 5% Cremophor: 5% ethanol: 90% saline) vs. Sham were injected through the sclerotomy, under fundoscopy using 34 g microsyringe (Hamilton, Benfleet, UK).
# Quantification of CNV—Eyes were enucleated, treated according to standard protocols. […] The flat mounts were then washed six times for 20 min each in PBS and mounted on a slide using mounting medium. The area of CNV surrounding each laser injury was measured using ImageJ software.
# VEGF = settings: diabetic macular edema patients; cited from earlier work
# Sequence of VEGF (P15692 207-311 limits assumed): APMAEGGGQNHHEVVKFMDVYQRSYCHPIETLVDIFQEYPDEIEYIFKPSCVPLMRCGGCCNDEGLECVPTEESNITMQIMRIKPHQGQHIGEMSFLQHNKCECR
# [5] = HUVECs, single 72-hour treatment
# [6] = single 72-hour treatment, read-out: IC50 (inhibitory concentration of 50% cell growth compared to control)
molecule,measurement,setting,value
"Cc1ccc(NC(=O)c2cccc(OCc3c(C)noc3C)c2)cc1S(N)(=O)=O (racemic) [Z62954982, 3-((3,5-Dimethylisoxazol-4-yl)methoxy)-N-(4-methyl-3-sulfamoyl-phenyl)benzamide]",IC50 (inhibitory concentration of 50% cell growth compared to control),HUVECs [1]; single 72-hour treatment,No effect
same,inhibitory effect with longer incubation time,"HUVECs [1]; HUVECs, treatment time extended to 120 hours compared to 72-hour incubation",did not improve the inhibitory effect
"COc1ccc(/C=C/c2cc(O)cc(O)c2)cc1 [4′-Methoxyresveratrol, 5-[(E)-2-(4-Methoxyphenyl)ethen-1-yl]benzene-1,3-diol]",dose-proliferation inhibition relationship,HUVECs [1]; [5],linear inhibition of proliferation
same,IC50,HUVECs [1]; [6],64 µM
"O=C(CNC(=O)c1cccc(C(F)(F)F)c1)N[C@@H]1CCN(Cc2ccc(Cl)cc2)C1 [CCR2 antagonist 4 hydrochloride, N-[2-[[(3R)-1-[(4-chlorophenyl)methyl]-3-pyrrolidinyl]amino]-2-oxoethyl]-3-(trifluoromethyl)benzamidehydrochloride]",% of Inhibition ± SD,HUVECs [1],13.8 ± 8.07%
"CC(=O)C1=C(O)C(=O)N(c2ccc(Cl)cc2F)[C@@H]1C1CCCCC1 [CCR2-RA-[R], (R)-4-Acetyl-1-(4-chloro-2-fluorophenyl)-5-cyclohexyl-3-hydroxy-1,5-dihydro-2H-pyrrol-2-one]",inhibition of HUVECs proliferation (summary in words),HUVECs [1],did not show significant inhibition
same,% of Inhibition ± SD,HUVECs [1],33.4 ± 4.30%
same,effect of addition to the Azeliragon and EHop-016 combination on proliferation inhibition,"HUVECs [1]; HUVECs, 24-hour treatment",significantly augmented the proliferation inhibition effect
same,effect of addition to the Azeliragon and EHop-016 combination on proliferation inhibition,"HUVECs [1]; HUVECs, 48- and 72-hour treatment",not
same,inhibition of HUVECs migration,HUVECs [2],strongly inhibited cell migration
"CCn1c2ccccc2c2cc(Nc3ccnc(NCCCN4CCOCC4)n3)ccc21 [EHop-016, N4-(9-Ethyl-9H-carbazol-3-yl)-N2-[3-(4-morpholinyl)propyl]-2,4-pyrimidinediamine]",HIF-1α expression,[3],inhibited expression
same,area of the sprouting vessels,choroid explants,inhibited the area of the sprouting vessels
same,dependence of proliferation inhibition on the initial number of cells,HUVECs [1]; HUVECs at 3×10^3 and 1×10^3 cells/well,independent from the initial number of cells
same,decrease of IC50 by daily dosing in comparison with IC50 of SD regimen,"HUVECs [1]; HUVECs, 72 hours",more than a half
same,dose-proliferation inhibition relationship,HUVECs [1]; [5],linear inhibition of proliferation
same,IC50,"HUVECs [1]; daily dosing, 72 hours, read-out: IC50 following daily dosing regimen",1.24 µM
same,IC50,HUVECs [1]; [6],2.31 µM
same,CNV area,[4],comparable to the dramatic effect received from Aflibercept injection
same,inhibition of HUVECs migration,HUVECs [2],strongest migration inhibitor
"O=C(c1ccc(Cl)cc1)N(Cc1ccccc1)C1CCCCC1 [FPS-ZM1, 4-Chloro-N-cyclohexyl-N-(phenylmethyl)benzamide]",dose-proliferation inhibition relationship,HUVECs [1]; [5],linear inhibition of proliferation
same,IC50,HUVECs [1]; [6],30 µM
"CCN(CC)CCCC(C)Nc1nc(C)cc(Nc2ccc3nc(C)cc(N)c3c2)n1.Cl.Cl.Cl (stereo not shown) [NSC 23766 trihydrochloride, N6-[2-(4-Diethylamino-1-methyl-butylamino)-6-methyl-pyrimidin-4-yl]-2-methyl-quinoline-4,6-diamine trihydrochloride]",IC50 (inhibitory concentration of 50% cell growth compared to control),HUVECs [1]; single 72-hour treatment,No effect
"O=C(NCC(=O)N1CC[C@H](NC2CCC(O)(c3ccc(-c4ncccn4)cn3)CC2)C1)c1cccc(C(F)(F)F)c1 (stereo partly drawn) [PF-4136309, N-[2-[(3S)-3-[[4-hydroxy-4-(5-pyrimidin-2-ylpyridin-2-yl)cyclohexyl]amino]pyrrolidin-1-yl]-2-oxoethyl]-3-(trifluoromethyl)benzamide]",% of Inhibition ± SD,HUVECs [1],25.7 ± 7.68%
"Aflibercept: Aflibercept (Eylea®), comparator injection in Laser-induced CNV model",CNV area,[4],dramatic effect
"Ranibizumab: a monoclonal antibody that inhibits VEGF (antibody, chains of the INN, looked up, V domains shown) VH: EVQLVESGGGLVQPGGSLRLSCAASGYDFTHYGMNWVRQAPGKGLEWVGWINTYTGEPTYAADFKRRFTFSLDTSKSTAYLQMNSLRAEDTAVYYCAKYPYYYGTSHWYFDVWGQGTLVTVSS VL: DIQLTQSPSSLSASVGDRVTITCSASQDISNYLNWYQQKPGKAPKVLIYFTSSLHSGVPSRFSGSGSGTDFTLTISSLQPEDFATYYCQQYSTVPWTFGQGTKVEIK","clinical outcome (vision, macular edema)",VEGF,rapidly and sustainably improved vision
